Assay results as given in PMC11597387 (Molecules, 2024).
Several values for one entry are separate records, joined by “and”; a condition that tells them apart may be missing. Equal entries are not always repeated. Where two headings read alike, the source gives them in different places.

Columns and labels:
[1] = pKa determination by UV/vis spectrometric method; assay type: physicochemical; conditions: buffers I = 0.1 M, 1% methanol
Excerpt: For the successful determination of pKa values using the UV/vis spectrometric method, the UV/vis absorbance of the sample must change as a function of ionization. […] For the other investigated compounds, the spectra and results of data analysis are presented in the Supporting Information (Figures S1–S3). […] At lower pH values, the molecules are neutral with an absorption maximum between 311 nm and 343 nm. At the highest pH value, only deprotonated species are present with two absorption maxima, one at a wavelength around 370 nm and the other around 305 nm. […] Data analysis for the determination of ionization constants by spectral analysis applied in this study is described by Tomsho et al. and Ríos Martínez and Dardonville.
The results of repeated measurements show satisfactory precision with scatter values less than or equal to 0.06 for all compounds [36].
Working solutions were prepared by 100-fold dilution of stock solutions with appropriate buffer solutions.
Chemicals used for preparation of buffers were sodium acetate (Alkaloid, Skopje, Macedonia), potassium dihydrogenphosphate (Lach-ner, Neratovice, Czech Republic), sodium hydrogencarbonate (Kemika, Zagreb, Croatia), and dipotassium hydrogenphosphate (Fisher Chemical, Loughborough, UK). Sodium hydroxide was supplied by Gram-mol (Zagreb, Croatia), and hydrochloric acid was supplied by VWR Chemicals (Leuven, Belgium). All chemicals used were of analytical grade and used as received. For the preparation of buffer solutions for spectrophotometric measurements, stock solutions of 0.1 M sodium acetate, 0.05 M potassium dihydrogen phosphate, 0.05 M sodium hydrogen carbonate, and 0.05 M dipotassium hydrogen phosphate were used. Sodium acetate/acetic acid buffer was used for pH range 3.5−5.0, KH2PO4/K2HPO4 for pH range 5.5–8.5, […] for pH range 9.0−11.0, and K2HPO4/K3PO4 for pH range 11.0−11.5. All buffer solutions were prepared with the same ionic strength (I = 0.1 M) by adding KCl (Lach-ner, Neratovice, Czech Republic).
The exact pH value of the prepared buffer solutions was measured with an S20 SevenEasy pH-meter (MettlerToledo, Greifenseea, Switzerland).
The data analysis was carried out in the entire specified range. However, due to high absorbance at short wavelengths and zero absorbance at wavelengths greater than 500 nm, spectra in the range from 250 nm to 500 nm are shown in the figures for a clearer presentation. […] Appropriate buffer solutions were used as a blank.
Data analysis included correction of the raw spectra (A(500 nm) = 0) and the calculation of the spectral difference, which were performed using Excel program. The spectral difference was determined between the spectra recorded at each pH and at the spectra recorded at the lowest pH. The wavelengths of maximum positive and negative deviations were determined from the spectral difference graph. The absolute values of the absorbance difference at the determined wavelengths were summed to obtain total absorbance difference. The dependence of the total absorbance difference on pH (spectral difference graph) gives a characteristic sigmoidal curve. […] (1) Total absorbace difference = STεHA−εA^−·10^(pH−pKa)/1+10^(pH−pKa) where [ST] is the total substance concentration, and εHA and εA^− represent the extinction coefficients of the acidic and basic form of the compound, respectively.
Measurements were performed using freshly prepared working solutions. For each resveratrol analogue and each pH, three consecutive measurements were made.

[2] = literature value, no reference given; cited from earlier work
[3] = mean of three determinations, read-out: pKa¯ ± Scatter Value
[4] = single determination (one of three)
[5] = single determination (one of three), read-out: pKa

## Oc1ccccc1/C=C/c1cccs1 [Compound 2, (E)-2-(2-(Thiophen-2-yl)vinyl)phenol]
[1]; [3]
  pKa: 9.88 ± 0.04
[1]; [4]
  pKa: 9.86 and 9.92
[1]; [5]
  pKa: 9.85

## Oc1cccc(/C=C/c2cccs2)c1 [Compound 3, (E)-3-(2-(Thiophen-2-yl)vinyl)phenol]
[1]; [3]
  pKa: 10.1
[1]; [4]
  pKa: 10.05
[1]; [5]
  pKa: 10.1

## COc1ccc(/C=C/c2cccs2)c(O)c1 [Compound 4, (E)-5-Methoxy-2-(2-(thiophen-2-yl)vinyl)phenol]
[1]; [3]
  pKa: 9.17 ± 0.06
[1]; [4]
  pKa: 9.21 and 9.11
[1]; [5]
  pKa: 9.19

## Cc1ccc(/C=C/c2ccccc2O)s1 [Compound 5, (E)-2-(2-(5-Methylthiophen-2-yl)vinyl)phenol]
[1]; [3]
  pKa: 9.4
[1]; [4]
  pKa: 9.36
[1]; [5]
  pKa: 9.45

## COc1ccc(/C=C/c2ccc(C)s2)c(O)c1 [Compound 6, (E)-5-Methoxy-2-(2-(5-methythiophen-2-yl)vinyl)phenol]
[1]; [3]
  pKa: 9.62
[1]; [4]
  pKa: 9.59 and 9.66
[1]; [5]
  pKa: 9.62

## COc1cccc(O)c1 [meta-methoxyphenol]
[2]
  experimental pKa^exp: 9.6
